Experimental data reported in US20070072831A1, “Integrase inhibitor compounds” (GILEAD SCIENCES, INC., priority 2005, published 2007).
pEC50, pIC50: −log10 of the molar value.

Columns and labels:
[1] = test system: HIV-IIIb; assay: Antiviral assay in MT-4 cells infected with HIV-IIIb; format: cell-based; details: MT4, 120 h; MT-4 cells, HIV-IIIb, 5 days; read-out: EC50 Range MT-4
Procedure: See: Wolfe, etal J. Virol.
Antiviral Assays in MT2 and MT4 Cells
For the antiviral assay utilizing MT-2 cells, 50 μl of 2× test concentration of 5-fold serially diluted compound in culture medium with 10% FBS was added to each well of a 96-well plate (9 concentrations) in triplicate. MT-2 cells were infected with HIV-IIIb at a multiplicity of infection (m.o.i) of 0.01 for 3 hours. Fifty microliters of infected cell suspension in culture medium with 10% FBS (˜1.5×10^4 cells) was then added to each well containing 50 μl of diluted compound. The plates were then incubated at 37° C. for 5 days. For the antiviral assay utilizing MT-4 cells, 20 μl of 2× test concentration of 5-fold serially diluted compound in culture medium with 10% FBS was added to each well of a 384-well plate (7 concentrations) in triplicate. MT-4 cells were next mixed with HIV-IIIb at an m.o.i. of 0.1 and 20 μl of virus/cell mixture (˜2000 cells) was immediately added to each well containing 20 μl of diluted compound. The plates were then incubated at 37° C. for 5 days. After 5 days of incubation, 100 μl of CellTiter-Glo™ Reagent (catalog # G7571, Promega Biosciences, Inc., Madison, Wis.) was added to each well containing MT-2 cells and 40 μl to each well containing MT-4 cells. Cell lysis was carried out by incubating at room temperature for 10 min and then chemiluminescence was read.

[2] = target: HIV integrase (Human immunodeficiency virus type 1 group M subtype B, UniProt P04585); assay: biochemical
Procedure: Representative compounds of the invention were tested for biological activity by methods including anti-HIV assay, measuring inhibition of HIV-integrase strand transfer catalysis, and cytotoxicity.
HIV Integrase Assay (IC50 Determination)
The HIV Integrase assay is carried out in Reacti-Bind High Binding Capacity Streptavidin coated plates (Pierce # 15502) in 100 μl reactions. The wells of the plate are rinsed once with PBS. Each well is then coated at room temperature for 1 h with 100 μl of 0.14 μM Donor DNA with the following sequence:
After coating, the plate was washed twice with PBS. 3′processing of the Donor DNA is started by adding 80 μl of Integrase/buffer mixture (25 mM HEPES, pH 7.3, 12.5 mM DTT, 93.75 mM NaCl, 12.5 mM MgCl2, 1.25% Glycerol, 0.3125 uM integrase) to each well. 3′processing is allowed to proceed for 30 min at 37° C., after which, 10 μl of test compound and 10 μl of 2.5 uM DIG-labeled Target DNA with the following sequence:
are added to each well to allow strand transfer to proceed for 30 min at 37° C. The plate is then washed three times with 2×SSC for 5 min and rinsed once with PBS. For detection of integrated product, 100 μl of a 1/2000 dilution of HRP-conjugated anti-DIG antibody (Pierce #31468) are added to each well and incubated for 1 hour. The plate was then washed three times for 5 min each, with 0.05% Tween-20 in PBS. For signal development and amplification, 100 μl of SuperSignal ELISA Femto Substrate (Pierce #37075) are added to each well. Chemiluminescence (in relative light units) is read immediately at 425 nm in the SPECTRAmax GEMINI Microplate Spectrophotometer using the end point mode at 5 sec per well.
For IC50 determinations, eight concentrations of test compounds in a 1/2.2 dilution series are used.

Compound CCN(c1c2c(c(O)c3ncccc13)C(=O)N(Cc1ccc(F)cc1)C2)S(C)(=O)=O [Compound 78, N-ethyl-N-(7-(4-fluorobenzyl)-9-hydroxy-8-oxo-7,8-dihydro-6H-pyrrolo[3,4]quinolin-5-yl)methanesulfonamide] has a pEC50 [1] of over 7.22 and a pIC50 [2] of over 7.22.
CNC(=O)c1cc(F)ccc1CN1Cc2c(c(O)c3ncccc3c2N(C)S(C)(=O)=O)C1=O [Compound 88] gave a pEC50 [1] of over 7.22 and a pIC50 [2] of 6.00 to 7.22.
Work on CN(C)C(=O)c1cc(F)ccc1CN1Cc2c(c(O)c3ncccc3c2N(C)S(C)(=O)=O)C1=O [Compound 90, 5-fluoro-2-((9-hydroxy-5-(N-methylmethylsulfonamido)-8-oxo-6H-pyrrolo[3,4-g]quinolin-7(8H)-yl)methyl)-N,N-dimethylbenzamide] yielded a pEC50 [1] of over 7.22 and a pIC50 [2] of 6.00 to 7.22.
With CN(c1c2c(c(O)c3ncccc13)C(=O)N(Cc1ccncc1)C2)S(C)(=O)=O [Compound 92, N-(9-hydroxy-8-oxo-7-(pyridin-4-ylmethyl)-7,8-dihydro-6H-pyrrolo[3,4-g]quinolin-5-yl)-N-methylmethanesulfonamide] the pEC50 [1] was under 6.00 and the pIC50 [2] was under 6.00.
With CN(c1c2c(c(O)c3ncccc13)C(=O)N(Cc1ccccn1)C2)S(C)(=O)=O [Compound 94, N-(9-hydroxy-8-oxo-7-(pyridin-2-ylmethyl)-7,8-dihydro-6H-pyrrolo[3,4-g]quinolin-5-yl)-N-methylmethanesulfonamide] the pEC50 [1] was over 7.22 and the pIC50 [2] was 6.00 to 7.22.
For CN(c1c2c(c(O)c3ncccc13)C(=O)N(Cc1ccc(F)nc1)C2)S(C)(=O)=O [Compound 97, N-(7-((6-fluoropyridin-3-yl)methyl)-9-hydroxy-8-oxo-7,8-dihydro-6H-pyrrolo[3,4-g]quinolin-5-yl)-N-methylmethanesulfonamide], the pEC50 [1] was 6.00 to 7.22 and the pIC50 [2] was 6.00 to 7.22.
With CN(c1c2c(c(O)c3ncccc13)C(=O)N(Cc1ccc(F)cc1C#N)C2)S(C)(=O)=O [Compound 100, N-(7-(2-cyano-4-fluorobenzyl)-9-hydroxy-8-oxo-7,8-dihydro-6H-pyrrolo[3,4-g]quinolin-5-yl)-N-methylmethanesulfonamide] the pEC50 [1] was 6.00 to 7.22 and the pIC50 [2] was 6.00 to 7.22.
CN(c1c2c(c(O)c3ncccc13)C(=O)N(Cc1ccc(F)cc1N)C2)S(C)(=O)=O [Compound 103, N-(7-(2-amino-4-fluorobenzyl)-9-hydroxy-8-oxo-7,8-dihydro-6H-pyrrolo[3,4-g]quinolin-5-yl)-N-methylmethanesulfonamide] showed a pEC50 [1] of over 7.22 and a pIC50 [2] of over 7.22.
CN(c1c2c(c(O)c3ncccc13)C(=O)N(Cc1ccc(F)cc1S(C)(=O)=O)C2)S(C)(=O)=O [Compound 106, N-(7-(4-fluoro-2-(methylsulfonyl)benzyl)-9-hydroxy-8-oxo-7,8-dihydro-6H-pyrrolo[3,4-g]quinolin-5-yl)-N-methylmethanesulfonamide] showed a pEC50 [1] of over 7.22 and a pIC50 [2] of 6.00 to 7.22.
CN(c1c2c(c(O)c3ncccc13)C(=O)N(Cc1ccc(F)cc1S(=O)(=O)N(C)C)C2)S(C)(=O)=O [Compound 109, 5-fluoro-2-((9-(hydroxy)-5-(N-methylmethylsulfonamido)-8-oxo-6H-pyrrolo[3,4-g]quinolin-7(8H)-yl)methyl)-N,N-dimethylbenzenesulfonamide] showed a pEC50 [1] of over 7.22 and a pIC50 [2] of 6.00 to 7.22.
With CCOC(=O)N(C)c1c2c(c(O)c3ncccc13)C(=O)N(Cc1ccc(F)cc1)C2 [Compound 112, ethyl 7-(4-fluorobenzyl)-9-(hydroxy)-8-oxo-7,8-dihydro-6H-pyrrolo[3,4-g]quinolin-5-yl(methyl)carbamate] the pEC50 [1] was over 7.22 and the pIC50 [2] was over 7.22.
For CCOC(=O)N(C)c1c2c(c(O)c3ncccc13)C(=O)N(Cc1ccc(F)cc1)C2C (stereo not drawn) [Compound 114, ethyl 7-(4-fluorobenzyl)-9-hydroxy-6-methyl-8-oxo-7,8-dihydro-6H-pyrrolo[3,4-g]quinolin-5-yl(methyl)carbamate], the pEC50 [1] was 6.00 to 7.22 and the pIC50 [2] was 6.00 to 7.22.
In the case of CCOC(=O)N(C)c1c2c(c(O)c3ncccc13)C(=O)N(Cc1ccc(F)cc1)C2(C)C [Compound 115, ethyl 7-(4-fluorobenzyl)-9-hydroxy-6,6-dimethyl-8-oxo-7,8-dihydro-6H-pyrrolo[3,4-g]quinolin-5-yl(methyl)carbamate], the pEC50 [1] was under 6.00 and the pIC50 [2] was 6.00 to 7.22.
Compound CS(=O)(=O)Nc1c2c(c(O)c3ncccc13)C(=O)N(Cc1ccc(F)cc1)C2 [Compound 125, N-(7-(4-fluorobenzyl)-9-hydroxy-8-oxo-7,8-dihydro-6H-pyrrolo[3,4-g]quinolin-5-yl)methanesulfonamide] has a pEC50 [1] of 6.00 to 7.22 and a pIC50 [2] of over 7.22.
CN(c1c2c(c(O)c3ncccc13)C(=O)N(Cc1ccc(F)cc1)C2)S(N)(=O)=O [Compound 132, N-(7-(4-fluorobenzyl)-9-hydroxy-8-oxo-7,8-dihydro-6H-pyrrolo[3,4-g]quinolin-5-yl)-N-methylsulfamide] gave a pEC50 [1] of over 7.22 and a pIC50 [2] of over 7.22.
For CN(Cc1ccccc1)S(=O)(=O)N(C)c1c2c(c(O)c3ncccc13)C(=O)N(Cc1ccc(F)cc1)C2 [Compound 135, N′-benzyl-N′-methyl-N-(7-(4-fluorobenzyl)-9-hydroxy-8-oxo-7,8-dihydro-6H-pyrrolo[3,4-g]quinolin-5-yl)-N-methylsulfamide], the pEC50 [1] was 6.00 to 7.22 and the pIC50 [2] was 6.00 to 7.22.
In the case of CN(Cc1ccncc1)S(=O)(=O)N(C)c1c2c(c(O)c3ncccc13)C(=O)N(Cc1ccc(F)cc1)C2 [Compound 136, N-(7-(4-fluorobenzyl)-9-hydroxy-8-oxo-7,8-dihydro-6H-pyrrolo[3,4-g]quinolin-5-yl)-N-methyl-N′-methyl-N′-(pyridin-4-ylmethyl)sulfamide], the pEC50 [1] was 6.00 to 7.22 and the pIC50 [2] was 6.00 to 7.22.
For COc1ccc(CN2Cc3c(c(O)c4ncccc4c3N(C)S(C)(=O)=O)C2=O)c(OC)c1 [Compound 143, N-(7-(2,4-dimethoxybenzyl)-9-hydroxy-8-oxo-7,8-dihydro-6H-pyrrolo[3,4-g]quinolin-5-yl)-N-methylmethanesulfonamide], the pEC50 [1] was 6.00 to 7.22 and the pIC50 [2] was 6.00 to 7.22.
In the case of CN(c1c2c(c(O)c3ncccc13)C(=O)N(Cc1ccc(F)cc1F)C2)S(C)(=O)=O [Compound 145, N-(7-(2,4-difluorobenzyl)-9-hydroxy-8-oxo-7,8-dihydro-6H-pyrrolo[3,4-g]quinolin-5-yl)-N-methylmethanesulfonamide], the pEC50 [1] was over 7.22 and the pIC50 [2] was over 7.22.
For CN(c1c2c(c(O)c3ncccc13)C(=O)N(Cc1ccc(F)cc1Cl)C2)S(C)(=O)=O [Compound 147, N-(7-(2-chloro-4-fluorobenzyl)-9-hydroxy-8-oxo-7,8-dihydro-6H-pyrrolo[3,4-g]quinolin-5-yl)-N-methylmethanesulfonamide], the pEC50 [1] was over 7.22 and the pIC50 [2] was over 7.22.
CN(c1c2c(c(O)c3ncccc13)C(=O)N(Cc1ccc(F)cn1)C2)S(C)(=O)=O [Compound 151, N-(7-((5-fluoropyridin-2-yl)methyl)-9-hydroxy-8-oxo-7,8-dihydro-6H-pyrrolo[3,4-g]quinolin-5-yl)-N-methylmethanesulfonamide] was tested, and the pEC50 [1] was 6.00 to 7.22 and the pIC50 [2] was 6.00 to 7.22.
For CN(c1c2c(c(O)c3ncccc13)C(=O)N(Cc1ccc(F)cc1)C2=O)S(C)(=O)=O [Compound 152, N-(7-(4-fluorobenzyl)-9-hydroxy-6,8-dioxo-7,8-dihydro-6H-pyrrolo[3,4-g]quinolin-5-yl)-N-methylmethanesulfonamide], the pEC50 [1] was under 6.00 and the pIC50 [2] was over 7.22.
With CN(C)c1cccc2c(S(=O)(=O)N(C)c3c4c(c(O)c5ncccc35)C(=O)N(Cc3ccc(F)cc3)C4)cccc12 [Compound 154, 5-(dimethylamino)-N-(7-(4-fluorobenzyl)-9-hydroxy-8-oxo-7,8-dihydro-6H-pyrrolo[3,4-g]quinolin-5-yl)-N-methylnaphthalene-1-sulfonamide] the pEC50 [1] was under 6.00 and the pIC50 [2] was 6.00 to 7.22.
CN(c1c2c(c(O)c3ncccc13)C(=O)N(Cc1ccc(F)cc1)C2)S(=O)(=O)CC(F)(F)F [Compound 156, 2,2,2-trifluoro-N-(7-(4-fluorobenzyl)-9-hydroxy-8-oxo-7,8-dihydro-6H-pyrrolo[3,4-g]quinolin-5-yl)-N-methylethane-1-sulfonamide] was tested, and the pEC50 [1] was 6.00 to 7.22 and the pIC50 [2] was over 7.22.
CN(c1c2c(c(O)c3ncccc13)C(=O)N(Cc1ccc(F)cc1)C2)S(=O)(=O)c1ccccn1 [Compound 158, N-(7-(4-fluorobenzyl)-9-hydroxy-8-oxo-7,8-dihydro-6H-pyrrolo[3,4-g]quinolin-5-yl)-N-methylpyridine-2-sulfonamide] gave a pEC50 [1] of over 7.22 and a pIC50 [2] of 6.00 to 7.22.
Compound CN(c1c2c(c(O)c3ncccc13)C(=O)N(Cc1ccc(F)cc1)C2)S(=O)(=O)c1ccc(N2CCOCC2)nc1 [Compound 159, N-(7-(4-fluorobenzyl)-9-hydroxy-8-oxo-7,8-dihydro-6H-pyrrolo[3,4-g]quinolin-5-yl)-N-methyl-6-morpholinopyridine-3-sulfonamide] has a pEC50 [1] of 6.00 to 7.22 and a pIC50 [2] of 6.00 to 7.22.
Compound CC(=O)Nc1nc(C)c(S(=O)(=O)N(C)c2c3c(c(O)c4ncccc24)C(=O)N(Cc2ccc(F)cc2)C3)s1 [Compound 160, N-(5-(N-(7-(4-fluorobenzyl)-9-hydroxy-8-oxo-7,8-dihydro-6H-pyrrolo[3,4-g]quinolin-5-yl)-N-methylsulfamoyl)-4-methylthiazol-2-yl)acetamide] has a pEC50 [1] of 6.00 to 7.22 and a pIC50 [2] of 6.00 to 7.22.
